PubChem BioAssay (NCI)
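Exposure lasted 48 hours, with cells grown in 96-well plates and compounds tested at five concentrations. Here, GI50 denotes the concentration required for 50% inhibition of growth. Definition used: TGI = concentration required for complete inhibition of growth.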

Columns and labels:
Assay in all cases: NCI tumour cell line growth inhibition, 48 h
NCI-H23 lung = test system: NCI-H23 lung
NCI-H522 lung = test system: NCI-H522 lung
SF-539 CNS = test system: SF-539 CNS
HOP-62 NSCLC = test system: HOP-62 NSCLC
NCI-H460 lung = test system: NCI-H460 lung
SN12C renal = test system: SN12C renal
SF-295 CNS = test system: SF-295 CNS
SK-MEL-5 melanoma = test system: SK-MEL-5 melanoma
SNB-75 CNS = test system: SNB-75 CNS
MOLT-4 leukemia = test system: MOLT-4 leukemia

| SMILES | TGI (NCI-H23 lung) | TGI (NCI-H522 lung) | TGI (SF-539 CNS) | TGI (HOP-62 NSCLC) | TGI (NCI-H460 lung) | TGI (SN12C renal) | TGI (SF-295 CNS) | TGI (SK-MEL-5 melanoma) | TGI (SNB-75 CNS) | TGI (MOLT-4 leukemia) | GI50 (NCI-H23 lung) | GI50 (NCI-H522 lung) | GI50 (SF-539 CNS) | GI50 (HOP-62 NSCLC) | GI50 (NCI-H460 lung) | GI50 (MOLT-4 leukemia) | GI50 (SN12C renal) | GI50 (SF-295 CNS) | GI50 (SK-MEL-5 melanoma) | GI50 (SNB-75 CNS) |
| --- | --- | --- | --- | --- | --- | --- | --- | --- | --- | --- | --- | --- | --- | --- | --- | --- | --- | --- | --- | --- |
| CC12CC(C/C1=N/O)C(C)(C)C2 (configuration not stated) | > 100 µM | > 100 µM | > 100 µM | > 100 µM | > 100 µM | > 100 µM | > 100 µM | > 100 µM | > 100 µM | – | – | – | – | – | – | – | – | – | – | – |
| O=C1C=C(N2CCN(c3ccccn3)CC2)C(=O)c2c(O)ccc(O)c21 | 13 µM | 41.2 µM | 22.3 µM | 47.7 µM | 38.1 µM | 45.2 µM | 51.5 µM | 4.5 µM | 23.7 µM | 42.2 µM | – | – | – | – | – | – | – | – | – | – |
| Nc1ncc(/C=N/O)c(NCC2(CO)CC(CCc3ccccc3)C2)n1 (configuration not stated) | – | 20.9 µM | 29.6 µM | 24.8 µM | 22.1 µM | 33 µM | 22.7 µM | 11.9 µM | 30.8 µM | 23 µM | – | – | – | – | – | – | – | – | – | – |
| Oc1[nH]c2ccccc2c1/C=c1/cc2c(c(-c3ccc(C(F)(F)F)cc3)n1)=Nc1ccccc1-2 | 31.8 µM | 14.3 µM | 44.6 µM | 27.3 µM | 10.5 µM | > 100 µM | 28.4 µM | 19.3 µM | 20.7 µM | 13.2 µM | 10.9 µM | 1.67 µM | 16.3 µM | 12.3 µM | 2.56 µM | 3.32 µM | 27.9 µM | 2.99 µM | 5.28 µM | 1.45 µM |
| O=C1CSC2(CC(/C=C/c3ccccc3Br)=NN2c2cccc(S(=O)(=O)O)c2)N1c1nc2ccccc2s1 (configuration not stated) | > 100 µM | > 100 µM | > 100 µM | – | > 100 µM | > 100 µM | – | > 100 µM | > 100 µM | > 100 µM | – | – | – | – | – | – | – | – | – | – |
| COC(=O)C(NC(=O)CSc1nnc(COc2ccc(Cl)cc2)n1-c1ccccc1)C(C)C (configuration not stated) | 69.3 µM | 24.7 µM | > 100 µM | 35.2 µM | 99.3 µM | 37.1 µM | 42.2 µM | – | 38.9 µM | > 100 µM | – | – | – | – | – | – | – | – | – | – |
| C/C(=N\Nc1ccccc1)C(CN(C)C)C(c1ccccc1)c1c(O)c2ccccc2oc1=O (configuration not stated) | > 100 µM | > 100 µM | > 100 µM | > 100 µM | > 100 µM | > 100 µM | > 100 µM | > 100 µM | > 100 µM | > 100 µM | – | – | – | – | – | – | – | – | – | – |
| CC(=O)c1ccc(NC(=O)CSc2nc(C)nc3c2sc(=S)n3-c2ccccc2)cc1 | > 3.16 µM | > 3.16 µM | > 3.16 µM | > 3.16 µM | > 3.16 µM | > 3.16 µM | > 3.16 µM | > 3.16 µM | > 3.16 µM | > 3.16 µM | – | – | – | – | – | – | – | – | – | – |
| Cc1ccc2c(c1)CC1(C2=O)[C@H](c2ccccc2)C2C(=O)c3ccc(C)cc3C2[C@H]1c1ccccc1 (some centres not stated) | > 100 µM | > 100 µM | > 100 µM | > 100 µM | > 100 µM | > 100 µM | > 100 µM | – | > 100 µM | > 100 µM | – | – | – | – | – | – | – | – | – | – |
| N#CCCC1(CCC#N)CCCCCCC(CCC#N)(CCC#N)C(O)C1O (configuration not stated) | > 100 µM | > 100 µM | > 100 µM | > 100 µM | > 100 µM | > 100 µM | > 100 µM | > 100 µM | > 100 µM | – | – | – | – | – | – | – | – | – | – | – |
| CC1(C)COC(c2c(-c3ccccc3)noc2CS(=O)c2ccccc2)=N1 (configuration not stated) | > 100 µM | > 100 µM | > 100 µM | > 100 µM | > 100 µM | > 100 µM | > 100 µM | > 100 µM | > 100 µM | > 100 µM | – | – | – | – | – | – | – | – | – | – |
| COC(=O)C(C(=O)C(=O)NC1Nc2ccc(C)cc2S1)c1nc2ccc(Cl)cc2[nH]c1=O (configuration not stated) | > 100 µM | > 100 µM | > 100 µM | > 100 µM | > 100 µM | > 100 µM | > 100 µM | > 100 µM | > 100 µM | – | – | – | – | – | – | – | – | – | – | – |
| Cc1cn([C@H]2[C@@H](CO)C[C@H]2O)c(=O)[nH]c1=O | > 100 µM | > 100 µM | > 100 µM | > 100 µM | > 100 µM | > 100 µM | > 100 µM | > 100 µM | > 100 µM | > 100 µM | – | – | – | – | – | – | – | – | – | – |
| NC(=S)N/N=C\CC(O)(C(F)(F)F)C(F)(F)F | > 10 µM | > 10 µM | > 10 µM | > 10 µM | > 10 µM | > 10 µM | > 10 µM | > 10 µM | > 10 µM | > 10 µM | – | – | – | – | – | – | – | – | – | – |
| CC(=O)Nc1ccc(C(=O)N2N=C(C)/C(=C/c3ccc(O)cc3)C2=O)cc1 | > 100 µM | > 100 µM | > 100 µM | > 100 µM | > 100 µM | > 100 µM | > 100 µM | > 100 µM | > 100 µM | > 100 µM | – | – | – | – | – | – | – | – | – | – |
| CCN(CC)CCN(C)CCc1ccc(Br)cc1 | > 100 µM | > 100 µM | > 100 µM | > 100 µM | > 100 µM | > 100 µM | > 100 µM | 33.6 µM | > 100 µM | > 100 µM | – | – | – | – | – | – | – | – | – | – |
| OC12CCCCCC1(N1CCOCC1)c1ccccc12 (configuration not stated) | > 100 µM | > 100 µM | > 100 µM | > 100 µM | > 100 µM | > 100 µM | > 100 µM | > 100 µM | > 100 µM | > 100 µM | – | – | – | – | – | – | – | – | – | – |
| CNc1ccc(Cl)cc1S(=O)(=O)c1ccccc1[N+](=O)[O-] | > 100 µM | > 100 µM | > 100 µM | > 100 µM | > 100 µM | > 100 µM | > 100 µM | > 100 µM | > 100 µM | > 100 µM | – | – | – | – | – | – | – | – | – | – |
| COC1=CC(=O)C2=C(C1=O)[C@H]1CC[C@]3(C)[C@@H](OC(C)=O)CC[C@H]3[C@@H]1CC2 | > 100 µM | > 100 µM | > 100 µM | > 100 µM | > 100 µM | > 100 µM | > 100 µM | 48.8 µM | > 100 µM | 84 µM | – | – | – | – | – | – | – | – | – | – |
| CCCNC(=O)CCC(C)[C@H]1CCC2C3C(C[C@H](OC(C)=O)[C@@]21C)[C@@]1(C)CCC2(C[C@H]1C[C@H]3OC(C)=O)OOC1(CCCCC1)OO2 (some centres not stated) | 3.54 µM | 1.44 µM | 16 µM | 1.34 µM | 6.83 µM | 16 µM | 39.7 µM | 5.71 µM | 6.86 µM | 5.14 µM | – | – | – | – | – | – | – | – | – | – |
